Reference: paper PMC9981719, “A novel designed membrane-active peptide for the control of foodborne Salmonella enterica serovar Typhimurium” (Scientific Reports, 2023)
Where no end group is shown, it is not given here.

Legend:
[1] = tested on: 4,5,12:i:- H2-067; type: cell-based, Salmonella enterica 4,5,12:i:-; settings: strain H2-067
Text: (§1) All tests were done in triplicate.

[2] = tested on: 4,5,12:i:- H2-010; type: cell-based, Salmonella enterica 4,5,12:i:-; settings: strain H2-010
Text: as §1

[3] = tested on: 4,5,12:i:- H2-071; type: cell-based, Salmonella enterica 4,5,12:i:-; settings: strain H2-071
Text: as §1

[4] = tested on: 4,5,12:i:- H2-049; type: cell-based, Salmonella enterica 4,5,12:i:-; settings: strain H2-049
Text: as §1

[5] = tested on: 4,5,12:i:- H2-089; type: cell-based, Salmonella enterica 4,5,12:i:-; settings: strain H2-089
Text: as §1

[6] = tested on: 4,5,12:i:- H2-039; type: cell-based, Salmonella enterica 4,5,12:i:-; settings: strain H2-039
Text: as §1

[7] = tested on: 4,5,12:i:- H2-042; type: cell-based, Salmonella enterica 4,5,12:i:-; settings: strain H2-042
Text: as §1

[8] = tested on: 4,5,12:i:- H1-100; type: cell-based, Salmonella enterica 4,5,12:i:-; settings: strain H1-100
Text: as §1

[9] = tested on: 4,5,12:i:- H1-024; type: cell-based, Salmonella enterica 4,5,12:i:-; settings: strain H1-024
Text: as §1

[10] = tested on: 4,5,12:i:- H2-047; type: cell-based, Salmonella enterica 4,5,12:i:-; settings: strain H2-047
Text: as §1

[11] = tested on: S. Typhimurium H1-006; assay: MIC/MBC against drug-resistant isolate; type: cell-based, Salmonella enterica serovar Typhimurium; settings: strain H1-006
Text: as §1

[12] = tested on: S. Typhimurium H1-062; assay: MIC/MBC against drug-resistant isolate; type: cell-based, Salmonella enterica serovar Typhimurium; settings: strain H1-062
Text: as §1

[13] = tested on: S. Typhimurium H1-041; assay: MIC/MBC against drug-resistant isolate; type: cell-based, Salmonella enterica serovar Typhimurium; settings: strain H1-041
Text: as §1

[14] = tested on: S. Typhimurium H1-015; type: cell-based, Salmonella enterica serovar Typhimurium; settings: strain H1-015
Text: as §1

[15] = tested on: S. Typhimurium H1-001; type: cell-based, Salmonella enterica serovar Typhimurium; settings: strain H1-001
Text: as §1

[16] = tested on: Salmonella Typhimurium ATCC 13311; type: cell-based, Salmonella enterica serovar Typhimurium; settings: broth microdilution in MHB, 37 °C, 24 h, visible inspection, triplicate
Text: as §1

[17] = tested on: S. Typhimurium H1-011; type: cell-based, Salmonella enterica serovar Typhimurium; settings: strain H1-011
Text: as §1

[18] = tested on: 16 drug-resistant S. Typhimurium and 4,5,12:i:- isolates from Thailand; type: cell-based, Salmonella enterica; settings: summary over 16 isolates; nisin up to maximum concentration of 16,000 µg/ml
Text: as §1

[19] = tested on: S. Typhimurium ATCC13311; settings: checkerboard, TSB, 37 °C, 24 h
Description: (§2) Effects of the combination of A11 with nisin against S. Typhimurium ATCC 13311 and 10 drug-resistant S. Typhimurium and S. enterica isolates were determined by the checkerboard titration method. Briefly, 10 drug-resistant S. Typhimurium were grown to a concentration of 1 × 10^7 CFU/ml in fresh TSB. Aliquots (25 µl) of nisin (final concentrations of 0.5–16 mg/ml) and A11 (final concentrations of 0.98–250 µg/ml) were added into 96-well plates containing 50 µl of bacterial suspension and cultured at 37 °C. […] ICA is the concentration required to produce the same effect as compound A when used alone, ICB is the concentration required to produce the same effect as compound B when used alone. The CI results were interpreted as follows: a CI of less than 1 indicates synergistic effect, a CI equal to 1 indicates additive effect, and a CI of more than 1 indicates antagonistic effect.

[20] = tested on: S. Typhimurium H1-015; settings: checkerboard
Description: as §2

[21] = tested on: S. Typhimurium H1-006; settings: checkerboard
Description: as §2

[22] = tested on: 4,5,12:i:- H2-089; settings: checkerboard
Description: as §2

[23] = tested on: S. Typhimurium H1-062; settings: checkerboard
Description: as §2

[24] = tested on: 4,5,12:i:- H2-039; settings: checkerboard
Description: as §2

[25] = tested on: S. Typhimurium H1-001; settings: checkerboard
Description: as §2

[26] = tested on: 4,5,12:i:- H2-042; settings: checkerboard
Description: as §2

[27] = tested on: 4,5,12:i:- H1-100; settings: checkerboard
Description: as §2

[28] = tested on: S. Typhimurium H1-011; settings: checkerboard
Description: as §2

[29] = tested on: S. Typhimurium H1-041; settings: checkerboard
Description: as §2

[30] = tested on: S. Typhimurium ATCC 13311 and 10 drug-resistant S. Typhimurium and S. enterica isolates; assay: Checkerboard titration, A11 with nisin, summary over strains; type: cell-based, Salmonella enterica; settings: summary over tested strains
Description: as §2

Nisin (ITSISLCTPGCKTGALMGCNMKTATCHCSIHVSK; not fully specified (some residues, bridges); also: lantibiotic nisin-A: thioether (lanthionine) rings and dehydrated residues, places not given here; UniProt P13068 24-57, looked up) [bacteriocin, lantibiotic produced by Lactococcus lactis subsp. lactis, approved food preservative]
MIC [1]: > 16,000 µg/ml
MIC [2]: > 16,000 µg/ml
MIC [3]: > 16,000 µg/ml
MIC [4]: > 16,000 µg/ml
MIC [5]: > 16,000 µg/ml
MIC [6]: > 16,000 µg/ml
MIC [7]: > 16,000 µg/ml
MIC [8]: > 16,000 µg/ml
MIC [9]: > 16,000 µg/ml
MIC [10]: > 16,000 µg/ml
MIC [11]: > 16,000 µg/ml
MIC [12]: > 16,000 µg/ml
MIC [13]: > 16,000 µg/ml
MIC [14]: > 16,000 µg/ml
MIC [15]: > 16,000 µg/ml
MIC [16]: 16,000 µg/ml
MIC [17]: > 16,000 µg/ml
MICs against the 16 drug-resistant S. enterica isolates [18]: > 16,000 µg/ml
MIC (combination) ([19]; A11 combined with nisin): 4000 mg/L
MIC (alone) [19]: 16,000 µg/ml
MIC (combination) ([20]; A11 combined with nisin): 500 mg/L
MIC (alone) ([20]; TSB, 37 °C, 24 h): > 16,000 µg/ml
MIC (combination) ([21]; A11 combined with nisin): 500 mg/L
MIC (alone) ([21]; TSB, 37 °C, 24 h): > 16,000 µg/ml
MIC (combination) ([22]; A11 combined with nisin): 500 mg/L
MIC (alone) ([22]; TSB, 37 °C, 24 h): > 16,000 µg/ml
MIC (combination) ([23]; A11 combined with nisin): 500 mg/L
MIC (alone) ([23]; TSB, 37 °C, 24 h): > 16,000 µg/ml
MIC (combination) ([24]; A11 combined with nisin): 500 mg/L
MIC (alone) ([24]; TSB, 37 °C, 24 h): > 16,000 µg/ml
MIC (combination) ([25]; A11 combined with nisin): 500 mg/L
MIC (alone) ([25]; TSB, 37 °C, 24 h): > 16,000 µg/ml
MIC (combination) ([26]; A11 combined with nisin): 500 mg/L
MIC (alone) ([26]; TSB, 37 °C, 24 h): > 16,000 µg/ml
MIC (combination) ([27]; A11 combined with nisin): 500 mg/L
MIC (alone) ([27]; TSB, 37 °C, 24 h): > 16,000 µg/ml
MIC (combination) ([28]; A11 combined with nisin): 500 mg/L
MIC (alone) ([28]; TSB, 37 °C, 24 h): > 16,000 µg/ml
MIC (combination) ([29]; A11 combined with nisin): 500 mg/L
MIC (alone) ([29]; TSB, 37 °C, 24 h): > 16,000 µg/ml
MIC of nisin in combination with A11 [30]: 500 mg/L
